The test system of assay [1] is cysts (bradyzoite form) of murine brains. Put plainly: ex vivo treatment of cysts of murine brains, re-inoculated intraperitoneally to mice. In kind it is in vivo, Toxoplasma gondii. Conditions: cysts treated ex vivo at 200 nM for 7 days, Figure 3. Here is the method:
The cyclic peptide (IV′f) was then tested on cysts (bradyzoite form) of murine brains ex vivo at 200 nM (Figure 3). The cysts after treatment for 7 days with the cyclic peptide (IV′f) were re-inoculated intraperitonally to the mice.

In assay [2] the test system is MCF-7 cancer cells (breast cancer). In kind it is cell-based. Here is the method:
(§1) The synthesized cyclic peptides were subject to tests in vitro on human fibroblasts infected by Toxoplasma gondii (Toxo), on non-infected human fibroblasts (HFF) and on HeLa cancer cells (cervical cancer) and MCF-7 cancer cells (breast cancer). Their respective efficiencies were tested at 90 nM as a preliminary test. The results are illustrated in Figure 1.

A further assay deals with Toxoplasma gondii. In kind it is cell-based. Here is the method:
as §1

Assay [3] relates to non-infected human fibroblasts (HFF). In kind it is cell-based. Here is the method: as §1
In assay [4] the test system is HeLa cancer cells (cervical cancer). Format: cell-based. Here is the method: as §1

For the compound `C[C@@H](O)C(=O)CCCCC[C@@H]1NC(=O)[C@H]2CCCN2C(=O)[C@H](Cc2ccccc2)NC(=O)C(C)(C)NC1=O` [(IV′f), (3S,9S,14aR)-9-benzyl-3-((R)-7-hydroxy-6-oxooctyl)-6,6-dimethyldecahydropyrrolo[1,2-a][1,4,7,10]tetraazacyclododecine-1,4,7,10-tetraone], the “cysts in mice after injection of treated cysts” value in assay [1] is given as “do not exhibit any cyst”. Also, a half-maximal effect in assay [2] (EC50) was put at 0.533 µM. In the assay with Toxoplasma gondii, this compound showed an EC50 of 0.0286 µM and an EC90 of 0.0797 µM. Besides, in the assay on Toxoplasma gondii (90 nM, Figure 1), the “efficiency in preliminary test” value is reported as “interesting preliminary results”. In addition, in the assay on Toxoplasma gondii (Figure 2), the “activity compared with apicidin” value is “activity close to that of apicidin”; the effectiveness result is “very good effectiveness, of the order of the nanomolar”; the “efficiency compared with pyrimethamine” value was “much greater efficiency relatively to pyrimethamine”. In assay [3], this compound gave an EC50 of 0.647 µM and an EC90 of 4.11 µM. Further, in assay [4], the response was half-maximal at 0.474 µM (EC50) and the 90% effect level (EC90) was put at 1.01 µM.

In general, EC50 refers to the concentration that produces a half-maximal response. Usually EC90 stands for the concentration at which the effect reaches the 90% level. A high value points to weaker potency.

The values above are taken from patent publication US9133237B2, “Cyclic peptides with an anti-parasitic activity” (priority 2009, dated 2015).
